Among the data in BindingDB's records for doi:10.1021/acschembio.7b00369 (Baylor College of Medicine, 2017) are EC50 values, retold here.

“And” between values parts separate entries of the source, which are not always exact repeats. Equal entries are not always repeated.

Common to all, as to test: Microfluidic Mobility-Shift Assay
Conditions in all cases: pH 7

Test [1] has as its target T1, Isoform Beta of cGMP-dependent protein kinase 1 [1-351,G182E] (Human, UniProt Q13976, G182E).
T1 construct: 1-351

Test [2] has as its target T2, Isoform Beta of cGMP-dependent protein kinase 1 [5-676,G306E] (Human, UniProt Q13976, G306E).
T2 construct: 5-676

Test [3] addresses T3, cGMP-dependent protein kinase 2 [41-418,G232E] (Human, UniProt Q13237, G232E).
T3 construct: 41-418

For test [4], the target named is T4, Isoform Beta of cGMP-dependent protein kinase 1 [1-351] (Human, UniProt Q13976).
T4 construct: 1-351
T4 sequence (Q13976 whole entry): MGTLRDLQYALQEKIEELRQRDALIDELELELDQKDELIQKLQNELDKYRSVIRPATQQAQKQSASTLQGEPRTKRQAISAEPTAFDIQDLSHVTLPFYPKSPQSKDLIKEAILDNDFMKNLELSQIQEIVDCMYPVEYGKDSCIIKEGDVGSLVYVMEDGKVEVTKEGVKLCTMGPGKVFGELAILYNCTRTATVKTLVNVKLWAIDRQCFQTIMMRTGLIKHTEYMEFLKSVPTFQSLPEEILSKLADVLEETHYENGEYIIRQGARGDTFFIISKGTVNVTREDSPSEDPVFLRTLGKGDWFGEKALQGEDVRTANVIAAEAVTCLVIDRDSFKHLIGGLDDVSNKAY

The target in test [5] is T5, Isoform Beta of cGMP-dependent protein kinase 1 [1-351,G306E] (Human, UniProt Q13976, G306E).
T5 construct: 1-351

Test [6] has as its target T6, cGMP-dependent protein kinase 2 [41-418] (Human, UniProt Q13237).
T6 construct: 41-418
T6 sequence (Q13237 whole entry): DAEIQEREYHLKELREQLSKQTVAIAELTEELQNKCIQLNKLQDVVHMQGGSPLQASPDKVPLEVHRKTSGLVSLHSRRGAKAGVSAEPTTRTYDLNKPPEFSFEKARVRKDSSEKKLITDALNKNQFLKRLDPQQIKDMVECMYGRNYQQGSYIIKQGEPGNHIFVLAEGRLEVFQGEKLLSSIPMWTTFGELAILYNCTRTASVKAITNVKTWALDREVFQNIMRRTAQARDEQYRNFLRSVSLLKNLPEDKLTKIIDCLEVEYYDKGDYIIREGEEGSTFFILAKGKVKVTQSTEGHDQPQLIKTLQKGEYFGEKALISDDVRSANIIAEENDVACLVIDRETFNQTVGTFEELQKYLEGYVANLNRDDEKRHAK

In test [7] the target is T7, cGMP-dependent protein kinase 2 (Homo sapiens, UniProt Q13237).
T7 sequence (Q13237 whole entry): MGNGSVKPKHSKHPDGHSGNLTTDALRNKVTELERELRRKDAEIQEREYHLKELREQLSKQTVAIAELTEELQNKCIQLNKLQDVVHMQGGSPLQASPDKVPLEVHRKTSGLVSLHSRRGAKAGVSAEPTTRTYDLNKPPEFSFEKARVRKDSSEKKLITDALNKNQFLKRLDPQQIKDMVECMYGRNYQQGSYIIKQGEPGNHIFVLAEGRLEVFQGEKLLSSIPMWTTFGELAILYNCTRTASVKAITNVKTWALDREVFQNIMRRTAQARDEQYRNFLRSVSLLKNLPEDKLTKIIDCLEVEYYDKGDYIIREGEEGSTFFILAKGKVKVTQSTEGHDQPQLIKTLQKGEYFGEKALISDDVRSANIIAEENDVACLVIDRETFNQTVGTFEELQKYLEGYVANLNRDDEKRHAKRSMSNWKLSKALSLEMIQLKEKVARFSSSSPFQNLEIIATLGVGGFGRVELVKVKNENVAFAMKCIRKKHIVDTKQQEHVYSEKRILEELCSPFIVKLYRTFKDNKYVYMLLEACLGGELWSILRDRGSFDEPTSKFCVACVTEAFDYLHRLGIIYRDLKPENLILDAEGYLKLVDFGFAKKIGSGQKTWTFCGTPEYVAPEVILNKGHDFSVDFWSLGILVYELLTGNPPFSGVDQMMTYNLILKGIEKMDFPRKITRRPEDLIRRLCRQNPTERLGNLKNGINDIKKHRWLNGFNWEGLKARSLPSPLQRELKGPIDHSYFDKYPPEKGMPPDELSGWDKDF

For test [8], the target named is T8, cGMP-dependent protein kinase 2 [41-418,G356E] (Human, UniProt Q13237, G356E).
T8 construct: 41-418
T8 sequence (Q13237 41-418 G356E): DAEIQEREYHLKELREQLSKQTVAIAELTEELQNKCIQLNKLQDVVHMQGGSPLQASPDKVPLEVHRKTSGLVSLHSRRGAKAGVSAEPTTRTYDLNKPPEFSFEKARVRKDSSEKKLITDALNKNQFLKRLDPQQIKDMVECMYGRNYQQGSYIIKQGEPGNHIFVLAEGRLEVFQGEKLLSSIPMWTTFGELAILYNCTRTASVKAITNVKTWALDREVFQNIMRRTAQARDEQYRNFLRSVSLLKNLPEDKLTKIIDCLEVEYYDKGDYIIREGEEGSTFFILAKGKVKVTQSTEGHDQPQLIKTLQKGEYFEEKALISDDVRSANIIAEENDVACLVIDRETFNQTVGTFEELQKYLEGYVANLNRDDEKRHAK

T2 sequence (Q13976 as listed by the source G306E): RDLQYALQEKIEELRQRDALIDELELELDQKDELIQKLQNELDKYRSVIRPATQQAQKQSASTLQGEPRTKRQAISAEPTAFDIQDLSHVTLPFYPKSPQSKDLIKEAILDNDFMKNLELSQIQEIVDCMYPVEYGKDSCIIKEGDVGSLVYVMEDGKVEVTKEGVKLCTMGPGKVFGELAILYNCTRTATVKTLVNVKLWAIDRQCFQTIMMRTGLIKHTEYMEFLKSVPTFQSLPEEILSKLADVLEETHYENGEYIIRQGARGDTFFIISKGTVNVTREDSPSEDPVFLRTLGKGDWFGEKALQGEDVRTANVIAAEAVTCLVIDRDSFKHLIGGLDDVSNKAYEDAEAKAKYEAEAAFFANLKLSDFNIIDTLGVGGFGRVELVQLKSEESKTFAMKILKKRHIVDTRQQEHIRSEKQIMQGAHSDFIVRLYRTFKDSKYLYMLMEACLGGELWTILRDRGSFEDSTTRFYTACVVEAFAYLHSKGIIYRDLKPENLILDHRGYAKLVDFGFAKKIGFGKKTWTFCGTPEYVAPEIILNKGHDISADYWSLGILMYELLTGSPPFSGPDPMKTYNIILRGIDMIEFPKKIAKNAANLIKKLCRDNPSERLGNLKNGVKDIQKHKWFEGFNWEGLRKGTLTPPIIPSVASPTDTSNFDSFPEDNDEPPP
T1 sequence (Q13976 as listed by the source G182E): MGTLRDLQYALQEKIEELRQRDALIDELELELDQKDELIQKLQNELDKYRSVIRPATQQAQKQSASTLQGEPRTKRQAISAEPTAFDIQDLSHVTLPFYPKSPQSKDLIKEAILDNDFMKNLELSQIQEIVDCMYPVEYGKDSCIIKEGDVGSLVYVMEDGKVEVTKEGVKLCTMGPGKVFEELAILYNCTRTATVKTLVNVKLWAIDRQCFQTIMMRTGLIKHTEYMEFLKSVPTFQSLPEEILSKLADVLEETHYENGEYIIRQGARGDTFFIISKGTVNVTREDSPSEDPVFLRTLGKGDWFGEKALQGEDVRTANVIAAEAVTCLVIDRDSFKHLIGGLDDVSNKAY
T3 sequence (Q13237 41-418 G232E): as the sequence (Q13237 41-418 G356E) above, with G192E, E316G counted along it
T5 sequence (Q13976 as listed by the source G306E): as the sequence (Q13976 as listed by the source G182E) above, with E182G, G306E counted along it

Consider `Nc1nc(=O)c2nc(Sc3ccc(Cl)cc3)n([C@@H]3O[C@@H]4COP(=O)(O)O[C@H]4[C@H]3O)c2[nH]1` [8-pCP-cGMP], for which the EC50 in test [1] was 328 nM and 206 nM; in test [2] it was 370 nM and 249 nM; in test [3], 184 nM and 116 nM; in test [4] it was 163 nM and 212 nM; in test [5], 4.2 nM and 7.7 nM.
`Nc1nc(O)c2nc(Br)n([C@@H]3O[C@@H]4COP(=O)(O)O[C@H]4[C@H]3O)c2n1` [2-amino-8-bromo-9-[(2R,4aR,6R,7R,7aS)-2,7-dihydroxy-2-oxotetrahydro-2H,4H-2lambda~5~-furo[3,2-d][1,3,2]dioxaphosphinin-6-yl]-1,9-dihydro-6H-purin-6-one]: the EC50 turned out to be 765 nM in test [1]; 20 nM in test [6]; 58 nM in test [7]; 206 nM in test [2]; 11 nM in test [3]; 222 nM in test [4]. Also, the figures for the EC50 in test [5] and in test [8] were below 2 nM and 30 nM, respectively.
As for `O=c1c2ncn([C@@H]3O[C@@H]4COP(=O)(O)O[C@H]4[C@H]3O)c2[nH]c2nc(-c3ccccc3)cn12` [PET-cGMP], the EC50 in test [1] came to 5.8 nM; in test [6], 193 nM; in test [7], 225 nM; in test [2], 18 nM; in test [3], 1960 nM; in test [4] it was 3.8 nM. Also, the EC50 in test [5] is below 2 nM; in test [8] it was 5.3 nM.

Broadly, the EC50 is the midpoint of the concentration-response curve.
